Data from US20230095558A1, “IMMUNE CHECKPOINT TIM3-TARGETING BINDING PEPTIDE AND APPLICATION THEREOF” (Sparx Biotech (Jiangsu) Co., Ltd., priority 2020, published 2023).
No end group written: not given here.

Legend:
CD4+ T cells = test: Mixed lymphocyte reaction (DCs + CD4+ T cells), cytokine ELISA; format: cell-based, human; details: MLR; for expression level of INF-γ: ELISA on day 5, vs control groups (P<0.01 or P<0.05)
Experimental: Identification of the functional activity of TIM3-targeting binding peptides was performed by evaluating the levels of activation and proliferation of T cells, i.e., the levels of expression of IL-2 and IFN-γ cytokines. First, Dendritic Cells (DCs) and CD4+T cells were obtained by magnetic bead sorting, and then the levels of IFN-γ cytokines and IL-2 were detected by a Mixed Lymphocyte Reaction (MLR) experiment simulating close to human physiological environment and an ELISA experiment, to identify biological activities of the TIM3-targeting binding peptides.
Culture of Dendritic cells (DCs): Isolated dendritic cells (DCs) were cultured in Mo-DC differentiation medium (10^7 cells/10 mL medium), and 10 mL of the same medium was added to the cells after 3 days (the cells were cultured in the differentiation medium at 37° C., 5% CO2 and >95% humidity for 6 days). On day 7, DCs were resuspended in Mo-DC mature medium and cultured for further 3 days by addition of the Mo-DC differentiation medium. Matured DC and newly isolated T cells (DC and T cells from different donors) were mixed for mixed lymphocyte reaction. Approximately 1×10^4 DCs and 1×10^5 T cells per well were mixed and cultured in 200 μL RPMI-1640 medium with 10% FBS. To evaluate the activity (gradient action), competitive inhibition (P26 and ligand), synergistic effect (TIM3-targeting binding peptides and the PD-1 inhibitor Opdivo) of the binding peptides TIM3-targeting binding peptides, the corresponding concentrations of peptides, Opdivo, Galectin-9 were added to the corresponding wells to interact with the cells. The expression levels of IFN-γ (or IL-2) secreted in the cell supernatant were measured on day 5.
T cell activity were tested according to the instructions of the ELISA kit. Briefly, the capture antibody dilutions were coated on a 96-well plate overnight (24 hours) at room temperature at a concentration of 2 μg/mL in a volume of 100 μL. On the following day, the capture antibody solution was aspirated and the wells were washed three times with 300 μL wash buffer PBST (0.05% Tween®20, pH 7.2-7.4). Thereafter, the test wells were blocked with 300 μL of 1% BSA-PBS for 1 hour. After blocking, the test wells were washed in the same manner as above and 100 μL of the test samples or standards (in 1% BSA-PBS) were pipetted into each well for 2 hours. Thereafter, the detection antibody (125 ng/mL, 100 μL) was added to each well according to the instructions of the human IFN-γ/IL-2 Duo Set ELISA kit, and incubated for 2 hours. Then, HRP (100 μL, incubated for 20 minutes) and TMB (100 μL) were added. At the end of each step, each well was washed in the same manner as described above. After completion of the color development, the test wells were terminated with 12.5% H2SO4 (50 μL/well) and read on an ELISA plate reader at a wavelength of 450/570 nm. All experimental test wells were repeated.

TIM3 protein = target: T1, TIM3 protein (Homo sapiens, UniProt Q8TDQ0); test: SPR affinity of TIM3-targeting binding peptides to immobilized TIM3 protein; details: TIM3 sensor chip, dissociation rate
T1 sequence (Q8TDQ0 22-301): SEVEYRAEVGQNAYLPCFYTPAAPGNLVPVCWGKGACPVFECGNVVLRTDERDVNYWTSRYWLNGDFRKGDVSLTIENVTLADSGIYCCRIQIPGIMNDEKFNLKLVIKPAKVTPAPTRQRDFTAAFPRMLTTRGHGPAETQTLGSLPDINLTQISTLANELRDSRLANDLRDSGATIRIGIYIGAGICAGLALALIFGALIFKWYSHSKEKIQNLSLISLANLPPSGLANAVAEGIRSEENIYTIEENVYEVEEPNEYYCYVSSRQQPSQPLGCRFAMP
Experimental: The binding properties of the TIM3-targeting binding peptides to TIM3 and their competition experiments with Galectin-9-bound TIM3 were identified by flow cytometry and surface plasmon resonance (SPROpenSPR, Nicoya, V3.01) detection.
SPR assay: Affinity identification between the TIM3-targeting binding peptides and TIM3 was performed by immobilizing TIM3 protein (50 μg/mL) on the surface of a nanogold sensor chip upon activation of EDC/NHS. The TIM3-targeting binding peptides were diluted with buffer (PBS, pH 7.4) to concentrations of […], 19.5 μM, 39 μM and 78 μM, respectively. The competitive binding ability of the TIM3-targeting binding peptides to the ligand was identified by immobilizing the Galectin-9 protein (25 μg/mL) on a sensor chip at a detection concentration of 100 μg/mL for the TIM3-targeting binding peptides, and at a concentration of the mixed sample of 100 μg/mL TIM3-targeting binding peptides and 10 μg/mL TIM3 protein. The detection sample was loaded at a flow rate of 20 μL/min for about 7 min according to the instrument instructions. The KD, ka and kd values were calculated and analyzed by Trace Drawer Evaluation (version 2.0) software.

MC38-hPDL1 tumor = test: In vivo anti-tumor growth in MC38-hPDL1 tumor-bearing mice humanized with TIM3; design: species or system C57BL/6J mice transduced with the human TIM3 gene; details: 21 days, intraperitoneal, P26 5 mg/kg QD, ATE 10 mg/kg twice a week
Description: In this example, the anti-tumor growth effect of the TIM3-targeting binding peptides was farther examined in mice. The tumor inhibitory effect of the TIM3-targeting binding peptides on C57BL/6J MC38-hPDL1 tumor-bearing mice humanized with TIM3 was detected by the following experimental steps: 1. Inoculation of mice: […]-hPDL1 tumor cells (1×10^6 cells/mouse) were inoculated subcutaneously into C57BL/6J mice transduced with the human TIM3 gene. 2. Grouping: Mice were randomly divided into 4 groups with 7 mice per group when tumors reached 80 100 mm^3. 3. Administration: PBS (negative control), PD-L1 humanized antibody (positive control), polypeptides alone (experimental group) and polypeptides plus PD-L1 humanized antibody (synergistic effect group) were administered intraperitoneally to mice in each group, respectively. The amount of antibody used was 10 mg/kg twice a week. The amount of polypeptide was 5 mg/kg once daily. Tumor size and body weight of the mice were measured every 3 days. 4. Post-administration treatment: mice were euthanized 3 weeks after administration. Tumors were isolated, weighed, and photographed.

Row | Sequence | expression level of INF-γ (CD4+ T cells) | koff (TIM3 protein) | reversal of Galectin-9-mediated inhibition of CD4+ T cell activation (IFN-γ and IL-2 expression levels) (CD4+ T cells; P26 100 μg/mL, Galectin-9 5 μg/mL, ELISA) | tumor volumes (MC38-hPDL1 tumor; compared to control group) | growth of the tumor (tumor weight) (MC38-hPDL1 tumor; vs control group P<0.05)
1 | HYEADPYEAWYDAWDDIHTY (A TIM3-targeting binding peptide) [K1, 20-peptide targeting TIM3] | significantly increased |  |  |  | 
2 | SHDTRSPFTWGR [P1307, SHDTRSPFTWGR] |  | 7.89×10^−3 S^−1 |  |  | 
3 | SPFYYSGHQWVPHPRQAASY [K10] | significantly increased | 2.30×10^−2 S^−1 |  |  | 
4 | GLIPLTTMHIGK (A TIM3-targeting binding peptide) [P26, 12-peptide targeting TIM3] | significantly increased |  | reversed | tended to decrease | inhibited
5 | HDAFPRPHLFRN [P1301, HDAFPRPHLFRN] | significantly increased | 4.28×10^−3 S^−1 |  |  | 
6 | SQEVFAWTFSPRWTTAPKAL [K3] | significantly increased | 1.32×10^−2 S^−1 |  |  | 
7 | ALWPSSSMSSTI [P1303, ALWPSSSMSSTI] | significantly increased | 3.08×10^−3 S^−1 |  |  | 
8 | TFLNSVPTYSYW (A TIM3-targeting binding peptide) [P1310, 12-peptide targeting TIM3] | significantly increased |  |  |  | 
9 | QNPPLENTVYQEPFWQHAVD (A TIM3-targeting binding peptide) [K7, 20-peptide targeting TIM3] | significantly increased |  |  |  | 
10 | WQQNNPHLWDVFLGVPRTTE [K5] | significantly increased | 1.60×10^−2 S^−1 |  |  | 
11 | GSWNTFRAQPTI [P24, GSWNTFRAQPTI] |  | 1.69×10^−5 S^−1 |  |  | 
12 | FTYAHPVSHRWESSVHVDQW [K2] | significantly increased | 1.03×10^−2 S^−1 |  |  | 
13 | ADFRVMADMSMY [P29, ADFRVMADMSMY] | significantly increased | 7.47×10^−3 S^−1 |  |  | 
